Values of other authors in patent EP3653214A1, “IMPROVED DOSAGE REGIMEN FOR URSODEOXYCHOLIC ACID BASED ON ALKALINE PHOSPHATASE LEVELS IN THE TREATMENT OF CHRONIC CHOLESTATIC LIVER DISEASES” (Disphar International B.V., priority 2018, dated 2020).

Conditions: in vivo

For `C[C@H](CCC(=O)O)[C@H]1CC[C@H]2[C@@H]3[C@@H](O)C[C@@H]4C[C@H](O)CC[C@]4(C)[C@H]3CC[C@]12C` [UDCA, ursodeoxycholic acid], the tolerability is given as “generally well tolerated”.
